A short description of series [1]: Plasma stability assay, rat plasma. To be noted: 10 μM, 37° C. It counts as in vitro ADME. In outline:
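Rat, dog, cynomolgus monkey and human plasma incubated in duplicate; rat sampled at 0, 15, 120, 480 and 1440 min. Dog, monkey and human used 2 μM compound (final), 1% solvent, 37° C., sampled at 0, 10, 30, 60 and 120 min. HPLC-MS gave % parent remaining.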

Series [2] can be described thus: Polymorph screening of solid state drug substances. Particulars: for Dry method and appearance: after stirring 50 °C 72 hours, dried solid; for XRPD results (Dried): dried solid after 50 °C 72 hours; for Visual observation 50° C. / Visual observation RT: target conc. 100 mg/ml.
A short description of series [3]: physchem. To be noted: thermodynamic from solid; for solubility at 24 h: 25 °C, obs. temp. 25 °C; for solubility at 24 h / solubility: heating temp. 60 °C; for solubility: obs. temp. 40 °C.
Series [4] is described as follows: Plasma stability assay, human plasma. Format: in vitro ADME. To be noted: 2 μM, 37° C. The protocol: (§1) Plasma stability determination of the test compounds in rat, dog, cynomolgus monkey and human plasma is performed using HPLC-MS. For rat, incubations are carried out in 96-well polypropylene plates in 5 aliquots of 70 μL each (one for each time point). […] Five time points are analyzed (0, 15, 120, 480 and 1440 min). […] All incubations are performed in duplicates. The samples are analyzed by HPLC-MS. The percentage of parent compound remaining after incubation in plasma is determined.

The nature of series [5]: Liver S9 fraction stability, dog. To be noted: dog liver S9, 1.0 mg/ml S9 protein, 2 μM, 37° C. Format: in vitro ADME. The procedure:
(§2) Liver S9 fraction stability determination of the test compounds in dog, cynomolgus monkey and human is performed using HPLC-MS. Test compound (2 μM, 0.1% DMSO, 1% Methanol final concentration) was assessed for stability in a 50 μl phosphate buffer containing 1.0 mg/ml S9 protein from each of the three species and 5 mM D-saccharic acid-1, 4-lactone. Samples were incubated at 37° C. for 60 minutes and the % compound remaining was assessed.

Series [6] in a line: Plasma stability assay, dog plasma. Format: in vitro ADME. Particulars: 2 μM, 37° C. The procedure: as §1
Series [7] in a line: Liver S9 fraction stability, monkey. It counts as in vitro ADME, cynomolgus monkey. Particulars: monkey liver S9, 1.0 mg/ml S9 protein, 2 μM, 37° C. The protocol: as §2
Series [8] is described as follows: Liver S9 fraction stability, human. It counts as in vitro ADME. Particulars: human liver S9, 1.0 mg/ml S9 protein, 2 μM, 37° C. The procedure: as §2
Series [9] is described as follows: Plasma stability assay, monkey plasma. It counts as in vitro ADME, cynomolgus monkey. Particulars: 2 μM, 37° C. The procedure: as §1
Setting [10] is: heating temp. 60 °C, obs. temp. 25 °C.
[11] abbreviates: heating temp. 60 °C, obs. temp. 40 °C.

This is an account of results in patent US10533015B1, “Opioid receptor antagonist prodrugs” (Nirsum Laboratories, Inc., priority 2019, dated 2020).

Converted amounts (≈) assume the structure as drawn. Like-named read-outs stand apart in the source and are kept apart here.

A word on the solubility: it is how much of the substance goes into solution per volume. As a reminder, the solubility (thermodynamic) is the concentration in solution at equilibrium with solid.

Take `C=C1CC[C@@]2(O)C3Cc4ccc(OC(=O)OCCCCCCCCCCCCCC)c5c4[C@@]2(CCN3CC2CC2)[C@H]1O5` [Compound 31, (4aS,7aS,12bS)-3-(cyclopropylmethyl)-4a-hydroxy-7-methylene-2,3,4,4a,5,6,7,7a-octahydro-1H-4,12-methanobenzofuro[3,2-e]isoquinolin-9-yl tetradecyl carbonate]: under setting [10], the “Approximate Solubility (mg/mL) in Excipient: Cottonseed oil” value is more than 416.9 mg/mL. Besides, the “Approximate Solubility (mg/mL) in Excipient: Sesame oil” value under setting [10] is recorded as more than 413.5 mg/mL. For the same molecule, the “Equilibrium solubility (mg/mL) Water” value (heating temp. 40 °C, obs. temp. 40 °C) is given as less than 0.001 mg/mL. The “% remaining at time point” value is 100% in [1] (0 min); 123.2% in series [1] (15 min); 73.5% in series [1] (120 min); 54.4% in [1] (480 min); 46.4% in [1] (1440 min). In addition, the “Dry method and appearance” value in series [2] (Acetone), in series [2] (EtOAc), in series [2] (Heptane), in series [2] (Isopropanol) and in [2] (MTBE) was “Evaporation/white powder” throughout. The “XRPD results (Dried)” value in [2] (Acetone), in [2] (EtOAc), in series [2] (Heptane), in series [2] (Isopropanol) and in series [2] (MTBE) was “Pattern A” each time. For the same molecule, the “Visual observation 50° C.” value in [2] (Acetone), in series [2] (EtOAc), in series [2] (Heptane), in [2] (Isopropanol) and in series [2] (MTBE) was “Clear” each time. Besides, the “Visual observation RT” value is given as “Slurry” in series [2] (Acetone); “Clear” in series [2] (EtOAc); “Slurry” in series [2] (Heptane); “Clear” in [2] (Isopropanol); “Slurry” in series [2] (MTBE).

`CCCCCCCCCCCCCCCC(=O)Oc1ccc2c3c1O[C@H]1C(=O)CC[C@@]4(O)C(C2)N(CC2CC2)CC[C@]314` [Compound 55, (4aS,7aR,12bS)-3-(cyclopropylmethyl)-4a-hydroxy-7-oxo-2,3,4,4a,5,6,7,7a-octahydro-1H-4,12-methanobenzofuro[3,2-e]isoquinolin-9-yl palmitate]: the “Approximate Solubility (mg/mL) in Excipient: Cottonseed oil” value was less than 50 mg/mL under setting [10] and more than 400.1 mg/mL under setting [11]. Further, the “Approximate Solubility (mg/mL) in Excipient: Ethanol” value (Ethanol, heating temp. 60 °C, obs. temp. 40 °C) is more than 401.1 mg/mL. In addition, the “Approximate Solubility (mg/mL) in Excipient: Sesame oil” value runs as follows: under setting [10], less than 50 mg/mL; under setting [11], more than 394.8 mg/mL. The “Equilibrium solubility (mg/mL) Water” value (compound after slurry in EtOAc, temperatures N/A) is recorded as less than 0.0005 mg/mL. Also, the “% remaining at time point” value in [1] (0 min) turned out to be 100%; in [1] (15 min), 77.3%; in series [1] (120 min), 47.2%; in series [1] (480 min), 27.1%; in [1] (1440 min), 15.6%. For the same molecule, the “Dry method and appearance” value in series [2] (Acetone), in series [2] (EtOAc), in series [2] (Heptane), in [2] (Isopropanol) and in [2] (MTBE) was “Evaporation/white powder” each time. Further, the “XRPD results (Dried)” value in [2] (Acetone), in series [2] (EtOAc), in [2] (Heptane), in series [2] (Isopropanol) and in series [2] (MTBE) was “Pattern B” throughout. The “Visual observation 50° C.” value in series [2] (Acetone), in [2] (EtOAc), in [2] (Heptane), in [2] (Isopropanol) and in series [2] (MTBE) was “Clear” each time. For the same molecule, the “Visual observation RT” value in series [2] (Acetone) was “Slurry”; in series [2] (EtOAc), “Slurry”; in [2] (Heptane) it was “Slurry”; in series [2] (Isopropanol), “Slurry”; in [2] (MTBE), “Clear”.

Consider `C=C1CC[C@@]2(O)C3Cc4ccc(OC(=O)CCCCCCCCCCC)c5c4[C@@]2(CCN3CC2CC2)[C@H]1O5` [Compound 59, (4aS,7aS,12bS)-3-(cyclopropylmethyl)-4a-hydroxy-7-methylene-2,3,4,4a,5,6,7,7a-octahydro-1H-4,12-methanobenzofuro[3,2-e]isoquinolin-9-yl dodecanoate, reference compound], for which the solubility at 24 h in series [3] (oil or lipid, Approximate Solubility (mg/mL) in Excipient: Cottonseed oil, Cottonseed oil) is more than 414 mg/mL; in [3] (oil or lipid, Approximate Solubility (mg/mL) in Excipient: Sesame oil, Sesame oil), more than 393 mg/mL. The molecule also displayed a solubility (thermodynamic) in series [3] (40 °C, water) of less than 0.001 mg/mL. Further, the “% remaining at time point” value in [1] (0 min) was determined as 100%; in series [1] (15 min) it was 5.9%; in [1] (120 min), 0.7%; in [1] (480 min), 0.2%; in series [1] (1440 min), 0%.

With `CCCCCCCCCCCCCCCC(=O)OC1CCCn2c1nc(C)c(CCN1CCC(c3noc4cc(F)ccc34)CC1)c2=O` (stereo not shown) [Paliperidone palmitate, reference compound], the “% remaining at time point” value in [4] (0 min) was 100%; in series [4] (15 min (head)), 103.7%; in series [4] (120 min (head)), 97.6%; in [4] (480 min (head)) it was 109.1%; in series [4] (1440 min (head)), 104.1%; in [6] (0 min), 100%. The “% remaining at time point” value stood at 91.2% in series [6] (15 min (head)); 88.4% in series [6] (120 min (head)); 95.9% in series [6] (480 min (head)); 93.1% in series [6] (1440 min (head)); 100% in series [9] (0 min); 92% in series [9] (15 min (head)). In addition, the “% remaining at time point” value in [9] (120 min (head)) is 89.5%; in [9] (480 min (head)), 98.4%; in series [9] (1440 min (head)) it was 92.5%. Besides, the “% remaining at 60 minutes” value in series [5] amounted to 56.4%; in series [7], 57.4%; in series [8], 47.8%.

For `C=C1CC[C@@]2(O)[C@H]3Cc4ccc(O)c5c4[C@@]2(CCN3CC2CC2)[C@H]1O5` [nalmefene, 17-cyclopropylmethyl-4,5α-epoxy-6-methylenemorphinan-3,14-diol], the solubility in [3] (40 °C, oil or lipid, Approximate Solubility (mg/mL) in Excipient: Cottonseed oil, Cottonseed oil) is less than 25 mg/mL; in [3] (40 °C, oil or lipid, Approximate Solubility (mg/mL) in Excipient: Sesame oil, Sesame oil) it was less than 25.5 mg/mL; in [3] (40 °C, organic solvent or mixture, Approximate Solubility (mg/mL) in Excipient: Ethanol, Ethanol), 102 to 137 mg/mL (≈ 300 to 404 mM).
